Measurements: patent publication US6376522B1, “4-hydroxyisothiazole compounds” (Ciba Specialty Chemicals Corporation, priority 1999, dated 2002)
Converted amounts (≈) assume the structure as drawn. Where two headings read alike, the source gives them in different places.

How the values were obtained:
Test in all cases: Agar incorporation test, MIC
Type in all cases: cell-based
[1] = tested on: Staphylococcus aureus ATCC 6538
Method: (§1) An agar incorporation test is carried out to determine the MIC (Minimum Inhibitory Concentration [ppm]) of the compound of formula (101): […]
(§2) The test substances are dissolved in Ethanol, and a dilution series of the compound of the formula […] in agar are prepared.
(§3) Anaerobic bacteria and dermatophytes are cultivated on agar-plates, and washes off with Mueller-Hinton bouillon. Aerobic bacteria are cultivated in Mueller-Hinton bouillon overnight. The test germ suspension are diluted with Mueller-Hinton bouillon to a density of McFarland standard 0.5.
(§4) 10 μl of each germ suspension is dropped onto the agar plates containing the test substance, and the plates are then incubated at 36° C. for 2 to 3 days. (Aerobic bacteria are incubated at 36° C. for 48 hours, anaerobic bacteria are incubated at 30° C. for 72 hours). As controls, the bacterial suspensions are applied to agar plates without test substances. In order to exclude the solvent ethanol having an influence on the growth properties, the bacterial suspensions are applied to agar plates containing ethanol, but without test substance.
(§5) After the plates have been incubated, the growth of the bacteria on the test-substance-containing plates is compared with that of the control plates.

[2] = tested on: Staphylococcus hominis DSM 20330; settings: DSM20330, Table 1, 36° C., read-out: MIC (Minimum Inhibitory Concentration) Staphylococcus hominis DSM 20330
Method: as §1, §2, §3, §4, §5

[3] = tested on: Corynebacterium xerosis ATCC 373; settings: ATCC373, Table 1, 36° C., read-out: MIC (Minimum Inhibitory Concentration) Corynebacterium xerosis ATCC 373
Method: as §1, §2, §3, §4, §5

[4] = tested on: Escherichia coli NCTC 8196; settings: NCTC8196, Example 3, according to Example 2, read-out: MIC EC = Escherichia coli NCTC 8196
Method: as §1, §2, §3, §4, §5

[5] = tested on: Candida albicans ATCC 10231; settings: ATCC10231, Example 3, according to Example 2, read-out: MIC CA = Candida albicans ATCC 10231
Method: as §1, §2, §3, §4, §5

[6] = tested on: Aspergillus niger ATCC 6275; settings: ATCC6275, Example 3, according to Example 2
Method: as §1, §2, §3, §4, §5

[7] = tested on: Staphylococcus hominis DSM 20328; settings: DSM20328, Example 3, according to Example 2, read-out: MIC SH = Staphylococcus hominis DSM 20328
Method: as §1, §2, §3, §4, §5

[8] = ATCC6538, Example 3, according to Example 2, read-out: MIC SA = Staphylococcus aureus ATCC 6538

Row | MIC [1, 8] | MIC [4] | MIC [5] | MIC [6] | MIC [7] | Compound | MIC ([1]; ATCC6538, read-out: MIC (Minimum Inhibitory Concentration) Staphylococcus aureus ATCC 6538) | MIC [2] | MIC [3]
1 |  |  |  |  | 2 µg/mL (≈ 4.76 µM) | Oc1c(-c2ccc(F)cc2)nsc1Sc1snc(-c2ccc(F)cc2)c1O [(109)] |  |  | 
2 | 5 µg/mL (≈ 13 µM) |  |  |  | 5 µg/mL (≈ 13 µM) | Oc1c(-c2ccccc2)nsc1Sc1snc(-c2ccccc2)c1O [(107)] |  |  | 
3 | 50 µg/mL (≈ 261 µM) | 50 µg/mL (≈ 261 µM) | 50 µg/mL (≈ 261 µM) | 10 µg/mL (≈ 52.3 µM) |  | Cc1snc(-c2ccccc2)c1O [(105)] |  |  | 

Continued, compound first:

Row | Compound | MIC [1, 8] | MIC [4] | MIC [5] | MIC [6] | MIC [7] | MIC ([1]; ATCC6538, read-out: MIC (Minimum Inhibitory Concentration) Staphylococcus aureus ATCC 6538) | MIC [2] | MIC [3]
4 | Oc1c(-c2ccccc2)nsc1-c1ccccc1 [(101), 3,5-diphenyl-4-hydroxyisothiazole] |  |  |  |  |  | 5 µg/mL (≈ 19.7 µM) | 50 µg/mL (≈ 197 µM) | 5 µg/mL (≈ 19.7 µM)
5 | Oc1csnc1-c1ccccc1 [(103)] | 50 µg/mL (≈ 282 µM) | 250 µg/mL (≈ 1410 µM) | 250 µg/mL (≈ 1410 µM) | 100 µg/mL (≈ 564 µM) |  |  |  | 
6 | CCc1snc(-c2ccccc2)c1O [(106)] | 500 µg/mL (≈ 2440 µM) | 500 µg/mL (≈ 2440 µM) | 500 µg/mL (≈ 2440 µM) | 100 µg/mL (≈ 487 µM) | 500 µg/mL (≈ 2440 µM) |  |  | 
7 | O=C(c1ccc(F)cc1)c1snc(-c2ccc(F)cc2)c1O [(108)] |  |  | 100 µg/mL (≈ 315 µM) |  |  |  |  | 
8 | Oc1c(-c2ccccc2)nsc1-c1ccccc1 [(102)] | 10 µg/mL (≈ 39.5 µM) | 5 µg/mL (≈ 19.7 µM) | 50 µg/mL (≈ 197 µM) | 13 µg/mL (≈ 51.3 µM) | 50 µg/mL (≈ 197 µM) |  |  | 
9 | Oc1csnc1Cc1ccccc1 [(104)] | 50 µg/mL (≈ 261 µM) | 250 µg/mL (≈ 1310 µM) | 500 µg/mL (≈ 2610 µM) | 500 µg/mL (≈ 2610 µM) |  |  |  | 
